Results published in patent US10005773B2, “1-(4-pyrimidinyl)-1H-pyrrolo[3,2-c]pyridine derivatives as NIK inhibitors” (Janssen Pharmaceutica NV, priority 2013, dated 2018).
pEC50, pIC50: −log10 of the molar value.

Tests used:
[1] = target: T1, Recombinant Human NF-kappaB-Inducing Kinase (NIK/MAP3K14) (Homo sapiens, UniProt Q99558); test: Biological Assay A: inhibition of recombinant human NIK/MAP3K14 activity (MSD, MBP substrate); details: 25 μM ATP, 10 nM NIK/MAP3K14, 1 h at 25° C.; averaged over all batches; read-out: Biochemical (MSD MBP) IC50
Method: Inhibition of Recombinant Human NF-kappaB-Inducing Kinase (NIKIMAP3K14) Activity
Assay buffer was 50 mM Tris pH 7.5 containing 1 mM ethylene glycol tetraacetic acid (EGTA), 1 mM dithiothreitol (DTT), 0.1 mM Na3VO4, 5 mM MgCl2, 0.01% Tween® 20. Assays were carried out in 384 well Mesoscale high binding plates which had been coated with myelin basic protein (MBP) and blocked with bovine serum albumin to prevent non-specific protein binding. All compounds tested were dissolved in dimethyl sulfoxide (DMSO) and further dilutions were made in assay buffer. Final DMSO concentration was 1% (v/v) in assays. Incubations consisted of compound (1% DMSO in control and blank wells), 25 μM Adenosine-5′-triphosphate (ATP), and 10 nM NIK/MAP3K14 substituting enzyme with buffer in the blank wells. Incubations were carried out for 1 h at 25° C. and were followed by washing and sequential incubation with rabbit anti-phospho-MBP and anti-rabbit Ig Sulfotag antibody before reading bound Sulfotag on a Mesoscale Discovery. Signal obtained in the wells containing blank samples was subtracted from all other wells and IC50's were determined by fitting a sigmoidal curve to % inhibition of control versus Log10 compound concentration.

[2] = target: T1, Recombinant Human NF-kappaB-Inducing Kinase (NIK/MAP3K14); test: Biological Assay A2: inhibition of auto-phosphorylation of recombinant human NIK/MAP3K14 (AlphaScreen); type: biochemical; details: 25 microM ATP, 0.2 nM NIK/MAP3K14, 1 h at 25° C., averaged over all batches, read-out: Alpha-Screen IC50
Method: Inhibition of Auto-Phosphorylation of Recombinant Human NF-kappaB-Inducing Kinase (NIKIMAP3K14) Activity (AlphaScreen®)
NIK/MAP3K14 auto-phosphorylation activity was measured using the AlphaScreen® (ascreen) format (Perkin Elmer). All compounds tested were dissolved in dimethyl sulfoxide (DMSO) and further dilutions were made in assay buffer. Final DMSO concentration was 1% (v/v) in assays. Assay buffer was 50 mM Tris pH 7.5 containing 1 mM EGTA (ethylene glycol tetraacetic acid), 1 mM DTT (dithiothreitol), 0.1 mM Na3VO4, 5 mM MgCl2, 0.01% Tween® 20. Assays were carried out in 384 well Alphaplates (Perkin Elmer). Incubations consisted of compound, 25 microM Adenosine-5′-triphosphate (ATP), and 0.2 nM NIK/MAP3K14. Incubations were initiated by addition of GST-tagged NIK/MAP3K14 enzyme, carried out for 1 h at 25° C. and terminated by addition of stop buffer containing anti-phospho-IKK Ser176/180 antibody. Protein A Acceptor and Glutathione-Donor beads were added before reading using an EnVision® Multilabel Plate Reader (Perkin Elmer). Signal obtained in the wells containing blank samples was subtracted from all other wells and IC50's were determined by fitting a sigmoidal curve to % inhibition of control versus Log10 compound concentration.

[3] = tested on: P-IKKα levels in L363 cells; test: Biological Assay B: effect of compounds on P-IKKα levels in L363 cells; type: cell-based; details: Homo sapiens, L-363, BAFF stimulated, 2 hr treatment, averaged over all batches, read-out: IKKα Cellular IC50
Method: Effect of Compounds on P-IKKα Levels in L363 Cells
All compounds tested were dissolved in DMSO and further dilutions were made in culture medium. Final DMSO concentration was 1% (v/v) in cell assays. The human L363 cells (ATCC) were cultured in RPMI 1640 medium supplemented with GlutaMax and 10% fetal calf serum (PAA). Cells were routinely maintained at densities of 0.2×10^6 cells per ml-1×10^6 cells per ml at 37° C. in a humidified 5% CO2 atmosphere. Cells were passaged twice a week splitting back to obtain the low density. Cells were seeded in 96 well plates (Nunc 167008) at 2×10^6 per ml media in a volume of 75 μl per well plus 25 μl 1 μg/ml recombinant human B-cell activating factor (BAFF/BLyS/TNFSF13B). Seeded cells were incubated at 37° C. in a humidified 5% CO2 atmosphere for 24 hr. Drugs and/or solvents were added (20 μl) to a final volume of 120 μl. Following 2 hr treatment plates were removed from the incubator and cell lysis was achieved by the addition of 30 μl 5× lysis buffer followed by shaking on a plate shaker at 4° C. for 10 min. At the end of this incubation lysed cells were centrifuged at 800×g for 20 min at 4° C. and the lysate was assessed for P-IKKα levels by sandwich immuno-assay carried out in anti-rabbit antibody coated Mesoscale plates. Within an experiment, the results for each treatment were the mean of 2 replicate wells. For initial screening purposes, compounds were tested using an 8 point dilution curve (serial 1:3 dilutions). For each experiment, controls (containing MG132 and BAFF but no test drug) and a blank incubation (containing MG132 and BAFF and 10 μM ADS125117, a test concentration known to give full inhibition) were run in parallel. The blank incubation value was subtracted from all control and sample values. To determine the IC50 a sigmoidal curve was fitted to the plot of % inhibition of control P-IKKα levels versus Log10 compound concentration.

JJN-3 cells = test: Biological Assay C: antiproliferative activity on JJN-3 cells (CellTiter-Glo); type: cell-based; details: Homo sapiens, 72 hr treatment
Method: (§1) Determination of Antiproliferative Activity on LP-1, L-363 and JJN-3 Cells
(§2) All compounds tested were dissolved in DMSO and further dilutions were made in culture medium. Final DMSO concentration was 0.3% (v/v) in cell proliferation assays. Viability was assessed using CellTiter-Glo cell viability assay kit (Promega). The human LP-1, L-363 and JJN-3 cells (DSMZ) were cultured in RPMI 1640 medium supplemented with 2 mM L-glutamine, and 10% fetal calf serum (PAA). Cells were routinely kept as suspension cells at 37° C. in a humidified 5% CO2 atmosphere. Cells were passaged at a seeding density of 0.2×10^6/ml twice a week. Cells were seeded in black tissue culture treated 96-well plates (Perkin Elmer). Densities used for plating ranged from 2,000 to 6,000 cells per well in a total volume of 75 μl medium. After twenty four hours, drugs and/or solvents were added (25 μl) to a final volume of 100 μl. Following 72 hr of treatment plates were removed from the incubator and allowed to equilibrate to room temperature for approx 10 min. 100 μl CellTiter-Glo reagent was added to each well that was then covered (Perkin Elmer Topseal) and shaken on plate shaker for 10 min. Luminescence was measured on a HTS Topcount (Perkin Elmer). Within an experiment, the results for each treatment were the mean of 2 replicate wells. For initial screening purposes, compounds were tested using a 9 point dilution curve (serial 1:3 dilutions). For each experiment, controls (containing no drug) and a blank incubation (containing cells read at the time of compound addition) were run in parallel. The blank value was subtracted from all control and sample values. For each sample, the mean value for cell growth (in relative light units) was expressed as a percentage of the mean value for cell growth of the control.

L-363 cells = test: Biological Assay C: antiproliferative activity on L-363 cells (CellTiter-Glo); type: cell-based; details: Homo sapiens, 72 hr treatment
Method: as §1, §2

LP-1 cells = test: Biological Assay C: antiproliferative activity on LP-1 cells (CellTiter-Glo); type: cell-based; details: Homo sapiens, 72 hr treatment
Method: as §1, §2

T1 sequence (Q99558 whole entry): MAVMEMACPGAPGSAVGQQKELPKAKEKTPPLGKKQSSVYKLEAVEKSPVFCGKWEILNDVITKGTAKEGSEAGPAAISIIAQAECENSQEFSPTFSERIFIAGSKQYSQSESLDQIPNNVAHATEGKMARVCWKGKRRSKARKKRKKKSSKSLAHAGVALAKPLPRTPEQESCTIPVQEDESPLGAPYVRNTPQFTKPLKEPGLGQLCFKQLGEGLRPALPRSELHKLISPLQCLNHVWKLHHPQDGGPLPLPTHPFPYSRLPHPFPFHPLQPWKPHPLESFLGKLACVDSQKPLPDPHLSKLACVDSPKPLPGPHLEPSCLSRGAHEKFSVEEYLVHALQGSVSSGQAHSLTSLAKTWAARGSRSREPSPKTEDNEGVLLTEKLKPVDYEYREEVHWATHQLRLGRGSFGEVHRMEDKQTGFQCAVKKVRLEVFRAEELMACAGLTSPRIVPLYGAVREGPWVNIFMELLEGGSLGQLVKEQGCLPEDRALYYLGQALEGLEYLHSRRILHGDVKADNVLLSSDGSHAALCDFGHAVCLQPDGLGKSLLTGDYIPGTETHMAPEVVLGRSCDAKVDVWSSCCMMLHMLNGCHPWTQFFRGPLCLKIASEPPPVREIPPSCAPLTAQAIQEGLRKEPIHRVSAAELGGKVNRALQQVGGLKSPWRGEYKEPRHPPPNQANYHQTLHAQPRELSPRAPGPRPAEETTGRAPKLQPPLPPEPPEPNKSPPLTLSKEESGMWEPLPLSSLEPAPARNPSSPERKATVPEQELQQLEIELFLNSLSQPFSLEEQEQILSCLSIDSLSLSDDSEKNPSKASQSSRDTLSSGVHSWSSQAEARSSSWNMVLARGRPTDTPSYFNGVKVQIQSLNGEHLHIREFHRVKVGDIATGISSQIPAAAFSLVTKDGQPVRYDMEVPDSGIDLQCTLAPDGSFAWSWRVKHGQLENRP

SMILES | pIC50 [1] | pIC50 [2] | pIC50 [3] | pEC50 (JJN-3 cells) | pEC50 (L-363 cells) | pEC50 (LP-1 cells)
CC(C)(O)CCc1cn(-c2ccnc(N)n2)c2cc(C#CC3(O)CCCC3)ncc12 [Compound 32] | 7.66 | 7.92 | 6.81 | 6.33 | 5.75 | 5.16
CC(C)(O)CCc1cn(-c2nc(N)ncc2F)c2cc(C#CC3(O)CCCC3)ncc12 [Compound 34] | 7.96 | 7.89 | 6.70 | 5.77 | 5.65 | 5.47
CC(C)c1cn(-c2ccnc(N)n2)c2cc(C#CC(C)(C)O)ncc12 [Compound 22] | 8.19 | 7.80 | 7.80 | 7.31 | 7.33 | 6.88
CC(O)(C#Cc1cc2c(cn1)c(C1(F)CN(C3CC3)C1)cn2-c1ccnc(N)n1)C1CC1 (stereo not drawn) [Compound 42] | – | 6.20 | – | 5.55 | 5.81 | 4.74
CC(O)(C#Cc1cc2c(cn1)c(C1CCN(CCCF)CC1)cn2-c1nc(N)ncc1F)C1CC1 (stereo not drawn) [Compound 47] | – | 7.47 | – | 6.62 | 6.95 | 6.63
Nc1nccc(-n2ccc3cnc(C#CC4(O)CCCC4)cc32)n1 [Compound 1] | 8.05 | – | 7.89 | 6.49 | 6.17 | 6.03
CC(O)(C#Cc1cc2c(cn1)c(C1CCCN(CCC(F)(F)F)C1)cn2-c1nc(N)ncc1F)C1CC1 (stereo not drawn) [Compound 48] | – | 6.64 | – | 5.78 | 6.00 | 5.65
CC(CC#N)c1cn(-c2nc(N)ncc2F)c2cc(C#CC(C)(C)O)ncc12 (stereo not drawn) [Compound 38] | – | 7.42 | – | 6.21 | 6.58 | 5.59
CC(C)(O)C#Cc1cc2c(ccn2-c2ccnc(N)n2)cn1 [Compound 3] | – | – | 7.89 | 7.34 | 7.37 | 7.08
CC(O)(C#Cc1cc2c(cn1)c(C1CCN(CCC(F)(F)F)CC1)cn2-c1nc(N)ncc1F)C1CC1 (stereo not drawn) [Compound 46] | – | 7.25 | – | 5.96 | 6.33 | 6.01
COCCCc1cn(-c2nc(N)ncc2F)c2cc(C#CC(C)(C)O)ncc12 [Compound 39] | – | 7.44 | – | 6.24 | 6.43 | 6.07

Second part, led by results:

pIC50 [1] | pIC50 [2] | pIC50 [3] | SMILES | pEC50 (JJN-3 cells) | pEC50 (L-363 cells) | pEC50 (LP-1 cells)
7.48 | 7.46 | 7.06 | CN1CCC(c2cn(-c3ccnc(N)n3)c3cc(C#CC(C)(C)O)ncc23)CC1 [Compound 23] | 6.94 | 7.04 | 5.72
– | 7.89 | – | CC(O)(C#Cc1cc2c(cn1)c(C1CCN(CCC(F)(F)F)CC1)cn2-c1ccnc(N)n1)C1CC1 (single isomer, unassigned) [Compound 51] | 6.66 | 6.97 | 6.70
– | 7.16 | – | [2H]C([2H])([2H])C(O)(C#Cc1cc2c(cn1)c(C1CCN(CCC(F)(F)F)CC1)cn2-c1nc(N)ncc1F)C([2H])([2H])[2H] [Compound 49] | 6.64 | 6.89 | 6.61
– | 7.15 | – | CC(O)(C#Cc1cc2c(cn1)c(C1CCN(C3CC3)CC1)cn2-c1ccnc(N)n1)C1CC1 (stereo not drawn) [Compound 44] | 6.69 | 7.01 | 6.60
– | 7.38 | – | Cc1cc(C(C)(O)C#Cc2cc3c(cn2)c(C2CCN(C)CC2)cn3-c2ccnc(N)n2)no1 (stereo not drawn) [Compound 54] | 6.18 | 6.67 | 5.60
– | 7.31 | – | [2H]C([2H])([2H])C(O)(C#Cc1cc2c(cn1)c(C1CCN(C3CC3)CC1)cn2-c1ccnc(N)n1)C([2H])([2H])[2H] [Compound 45] | 7.72 | 8.08 | 7.54
– | 7.52 | – | [2H]C([2H])([2H])C(O)(C#Cc1cc2c(cn1)c(C1CCN(CCC(F)(F)F)CC1)cn2-c1ccnc(N)n1)C([2H])([2H])[2H] [Compound 50] | 7.41 | 7.64 | 7.39
– | 7.51 | – | [2H]C([2H])([2H])C(O)(C#Cc1cc2c(cn1)c(C1CCN(Cc3ccccc3)CC1)cn2-c1ccnc(N)n1)C([2H])([2H])[2H] [Compound 52] | 7.05 | 7.31 | 7.19
– | 7.46 | – | [2H]C([2H])([2H])N1CCC(c2cn(-c3ccnc(N)n3)c3cc(C#CC(O)(C([2H])([2H])[2H])C([2H])([2H])[2H])ncc23)CC1 [Compound 53] | 7.49 | 7.92 | 6.97
– | 7.13 | – | CC(C)(O)C#Cc1cc2c(cn1)c(C1CCN(CCF)CC1)cn2-c1nc(N)ncc1F [Compound 40] | 6.82 | 7.03 | 6.59
– | 7.11 | – | CN1CCC(c2cn(-c3ccnc(N)n3)c3cc(C#CC(C)(O)C4CC4)ncc23)CC1 (stereo not drawn) [Compound 41] | 6.51 | 6.67 | 5.49
– | 7.17 | – | CC(O)(C#Cc1cc2c(cn1)c(C1CCN(CCC(F)(F)F)CC1)cn2-c1ccnc(N)n1)C1CC1 (stereo not drawn) [Compound 43] | 6.35 | 6.53 | 6.34
– | 7.59 | – | CN1CCC(c2cn(-c3ccnc(N)n3)c3cc(C#CC(C)(O)c4nccs4)ncc23)CC1 (stereo not drawn) [Compound 56] | 5.60 | 5.91 | 5.10
